Results reported in the NIST ThermoML archive (doi:10.1016/j.tca.2006.10.025).

Key:
[1] = 303.15 K; 101.33 kPa; Liquid; Vibrating tube method
[2] = molar heat capacity at constant pressure; conditions: 101.33 kPa, Liquid, Small sample (50 mg) DSC
[3] = molar heat capacity at constant pressure; xn = mol fraction of the nth substance listed; conditions: 303.15 K, 101 kPa, Liquid, Small sample (50 mg) DSC
[4] = excess molar enthalpy (molar enthalpy of mixing); xn = mol fraction of the nth substance listed; conditions: 303.15 K, 101 kPa, Liquid, Flow calorimetry

CCCCO [butan-1-ol]
Conditions	mass density [kg/m3]
[1]	801.98

[2]
Conditions	molar heat capacity at constant pressure [J/K/mol]
288.15 K	166.2
293.15 K	171.8
298.15 K	175.3
303.15 K	178.9
308.15 K	182.8
313.15 K	186.6
318.15 K	190.8
323.15 K	194.7

CCCCCCCCCCO [decan-1-ol]
Conditions	mass density [kg/m3]
[1]	822.95

[2]
Conditions	molar heat capacity at constant pressure [J/K/mol]
288.15 K	360.1
293.15 K	368.5
298.15 K	373.9
303.15 K	379.3
308.15 K	385.3
313.15 K	390.6
318.15 K	395.9
323.15 K	401.3

CCCCCCCCCCO [decan-1-ol] + C[S+](C)[O-]
Conditions	excess molar enthalpy [kcal/mol]	molar heat capacity at constant pressure [J/K/mol]
[3], x2 = 0.0868	–	355.3
[3], x2 = 0.1641	–	338
[3], x2 = 0.2592	–	316.3
[3], x2 = 0.4231	–	282.4
[3], x2 = 0.5259	–	259.2
[3], x2 = 0.6431	–	235.2
[3], x2 = 0.7082	–	221.4
[3], x2 = 0.7997	–	201
[3], x2 = 0.8618	–	186.2
[3], x2 = 0.8908	–	179.2
[3], x2 = 0.9159	–	172.9
[3], x2 = 0.9596	–	162.1
[4], x2 = 0.1006	0.111	–
[4], x2 = 0.1828	0.209	–
[4], x2 = 0.2512	0.277	–
[4], x2 = 0.3091	0.317	–
[4], x2 = 0.4016	0.353	–
[4], x2 = 0.4722	0.364	–
[4], x2 = 0.573	0.36	–
[4], x2 = 0.6414	0.353	–
[4], x2 = 0.7286	0.328	–
[4], x2 = 0.8011	0.301	–
[4], x2 = 0.843	0.271	–
[4], x2 = 0.8895	0.228	–
[4], x2 = 0.9148	0.196	–
[4], x2 = 0.9416	0.15	–
[4], x2 = 0.9555	0.118	–
[4], x2 = 0.9699	0.0846	–
[4], x2 = 0.9847	0.0457	–

C[S+](C)[O-] [dimethyl sulfoxide]
Conditions	mass density [kg/m3]
[1]	1090.45

[2]
Conditions	molar heat capacity at constant pressure [J/K/mol]
288.15 K	147.8
293.15 K	149.4
298.15 K	151.5
303.15 K	152.4
308.15 K	153.4
313.15 K	155.4
318.15 K	155.6
323.15 K	156.6

C[S+](C)[O-] [dimethyl sulfoxide] + CCCCO
Conditions	excess molar enthalpy, [4] [kcal/mol]	molar heat capacity at constant pressure, [3] [J/K/mol]
x1 = 0.051	0.0715	–
x1 = 0.0874	–	175.2
x1 = 0.097	0.124	–
x1 = 0.1288	–	172.3
x1 = 0.1385	0.164	–
x1 = 0.1769	0.189	–
x1 = 0.2324	–	167
x1 = 0.2438	0.221	–
x1 = 0.3007	0.236	–
x1 = 0.364	–	161.2
x1 = 0.3921	0.255	–
x1 = 0.4541	–	158
x1 = 0.4622	0.254	–
x1 = 0.5633	0.245	–
x1 = 0.5775	–	155.4
x1 = 0.6568	–	152.7
x1 = 0.6594	0.223	–
x1 = 0.7207	0.201	151.6
x1 = 0.7577	–	150.8
x1 = 0.7947	0.171	–
x1 = 0.8377	0.144	–
x1 = 0.8537	–	150.3
x1 = 0.8856	0.112	–
x1 = 0.9117	0.0901	–
x1 = 0.919	–	150
x1 = 0.9393	0.0652	–
x1 = 0.9542	–	151.5
x1 = 0.9687	0.0356	–

C[S+](C)[O-] [dimethyl sulfoxide] + CCCO
Conditions	excess molar enthalpy [kcal/mol]	molar heat capacity at constant pressure [J/K/mol]
[3], x1 = 0.0514	–	146.2
[3], x1 = 0.1127	–	144
[3], x1 = 0.2114	–	141.8
[3], x1 = 0.3163	–	142.6
[3], x1 = 0.418	–	139.9
[3], x1 = 0.5029	–	140.6
[3], x1 = 0.6216	–	140.7
[3], x1 = 0.7068	–	141.6
[3], x1 = 0.7975	–	144.2
[3], x1 = 0.8537	–	145.6
[3], x1 = 0.8994	–	146.5
[3], x1 = 0.9429	–	147.6
[4], x1 = 0.0421	0.0449	–
[4], x1 = 0.0808	0.0803	–
[4], x1 = 0.1165	0.109	–
[4], x1 = 0.1495	0.134	–
[4], x1 = 0.2086	0.163	–
[4], x1 = 0.2601	0.184	–
[4], x1 = 0.3452	0.204	–
[4], x1 = 0.4127	0.21	–
[4], x1 = 0.5133	0.205	–
[4], x1 = 0.6128	0.189	–
[4], x1 = 0.6783	0.171	–
[4], x1 = 0.7598	0.136	–
[4], x1 = 0.8084	0.118	–
[4], x1 = 0.8634	0.0884	–
[4], x1 = 0.894	0.0722	–
[4], x1 = 0.9268	0.0521	–
[4], x1 = 0.962	0.0282	–

C[S+](C)[O-] [dimethyl sulfoxide] + CCO
Conditions	excess molar enthalpy [kcal/mol]	molar heat capacity at constant pressure [J/K/mol]
[3], x1 = 0.0356	–	117.9
[3], x1 = 0.0504	–	119.1
[3], x1 = 0.1092	–	121.7
[3], x1 = 0.1636	–	121.8
[3], x1 = 0.2647	–	124.6
[3], x1 = 0.3441	–	126.3
[3], x1 = 0.4469	–	129.9
[3], x1 = 0.557	–	133
[3], x1 = 0.6498	–	136.8
[3], x1 = 0.7615	–	141
[3], x1 = 0.8872	–	146.6
[3], x1 = 0.9408	–	148
[4], x1 = 0.0332	0.0294	–
[4], x1 = 0.0642	0.0514	–
[4], x1 = 0.0933	0.0672	–
[4], x1 = 0.1207	0.0813	–
[4], x1 = 0.1707	0.0978	–
[4], x1 = 0.2154	0.109	–
[4], x1 = 0.2917	0.12	–
[4], x1 = 0.3543	0.122	–
[4], x1 = 0.4516	0.117	–
[4], x1 = 0.5527	0.106	–
[4], x1 = 0.6222	0.0949	–
[4], x1 = 0.7119	0.077	–
[4], x1 = 0.7671	0.0652	–
[4], x1 = 0.8317	0.0483	–
[4], x1 = 0.8682	0.0375	–
[4], x1 = 0.9081	0.0282	–
[4], x1 = 0.9518	0.0148	–
